Test results as given in patent US20190307820A1, “COMPOSITIONS AND METHODS OF USING STAT1/3 INHIBITORS WITH ONCOLYTIC HERPES VIRUS” (priority 2016, published 2019).
Where two headings read alike, the source gives them in different places.

Columns and labels:
[1] = test system: oHSV-1 (G207) in BV2 cells; assay: G207 replication in BV2 cells with chemical inhibitors, plaque forming assay; type: cell-based, HSV-1
Procedure: (§1) FIG. 12A contains bar graphs showing the results of BV2 cells that were pre-treated with indicated chemical compounds for 1-2 hours and then infected with oHSV-1 at an MOI of 1. Viruses were harvested after 48 hours of oHSV-1 (G207) and indicated chemical inhibitor treatment.
as §1, with “12F is a” for “12A contains”, “graph” for “graphs”, “treatment. After 48 hours of treatment with oHSV-1 (G207) and C16, viruses were harvested and titrated by plaque forming assay on vero cells.” for “treatment.”
U87 (5×104) alone or U87+microglia co-culture (5×104+5×104) or BV2 microglia cells (5×104) alone were seeded into a 24-well plate. After overnight incubation (to allow the cells to attach), cells were pretreated with indicated concentration of NFkB inhibitor, Bay-11 (Santa Cruz, Canada) or an indicated concentration of imidazolo-oxindole derivative C16 (Milipore, Canada) or vehicle for 1-2 hours. The cells were then infected with oHSV-1 (G207 or HrR3) virus at a MOI of 1 in presence of chemical inhibitors for another 2 days. The viruses were harvested and titrated in vero cells by plaque forming assay in 12-well plates by triplicates.
The effects of a PKR inhibitor (C16), a NFkappaB inhibitor (Bay11), and an iNOS inhibitor (aminoguanidine hydrochloride) were tested on G207 replication in BV2 cells (Example 15). […] To verify that C16-mediated viral gene transcriptional augmentation is not due to deletions in ICP34.5 and/or ICP6 in G207, the effect of C16 on wild type (KOS) and ICP6 mutated (HrR3) HSV-1 infected BV2 cells was also examined. […] Finally, whether C16 can overcome this microglia-mediated suppression of viral replication in glioma cells was examined.

ICP27 = assay: Western blot of ICP27 in HrR3 infected U87 cells; type: cell-based, HSV-1; details: 0.5 μM, 1 μM and 10 μM nifuroxazide, HrR3 MOI-3, 24 hours
Procedure: (§2) FIGS. 4A-4C show the effect of nifuroxazide on HSV-1 gene expression. (FIG. 4A) U87 cells were treated with HrR3 viruses at a MOI-3 and indicated doses of nifuroxazide. 24 hours post infected, total protein was extracted and subjected to western blot analysis. (FIG. 4B) U87 cells were treated with HrR3 at a MOI-5 and indicated concentration of nifuroxazide for 6 hours. ICP27 mRNA level was detected by RT-qPCR. (FIG. 4C) Relative mRNA level (2^−ΔΔCT) is shown. Data are presented as mean SD, *P<0.05 vs corresponding vehicle treatment.
(§3) In this example, the underlying mechanism of nifuroxazide mediated oHSV-1 replication enhancement was examined. The effect of nifuroxazide on viral immediate early gene, ICP27 and ICP4 expression was established by Western blot analysis.

[2] = test system: oHSV-1 (HrR3) in U87 cells; assay: oHSV-1 (HrR3) replication in U87 cells, titrated in vero cells; type: cell-based, HSV-1; details: HrR3 MOI-0.1, 48 hours
Procedure: FIGS. 2A-2B contain charts that show the effect of nifuroxazide on replication of oHSV-1. (FIG. 2A) Indicated cells were infected with HrR3 viruses at MOI-0.1. Viruses were harvested at 48 hours post-infected and titrated in vero cells. Data are presented as mean SD, *P<0.05 vs corresponding vehicle treatment. (FIG. 2B) U87 or glio cells were treated with HrR3 at a MOI of 1 and indicated concentration of nifuroxazide for 48 hours. Total DNA was extracted and subjected to qPCR to detect HSV-1 using ICP27 primer. nifuroxazide mediated oHSV-1% increase was represented in the figure.
In this example, the effect of nifuroxazide on oHSV-1 anti-tumor efficacy was evaluated. oHSV-1 infected treated glioma cells were incubated with low concentration of nifuroxazide. Replication increased 27- and 40-fold with 0.5 μM nifuroxazide and 10 μM nifuroxazide treated U87 cells respectively. Similarly, virus replication increased 0.8- and 4.7-fold virus in 9L cells treated with 0.5 μM nifuroxazide and 10 μM nifuroxazide respectively (FIG. 2A).

U87 cells = assay: MTT cytotoxicity assay, U87 cells; type: cell-based; details: Homo sapiens, U-87 MG
Procedure: (FIG. 5A) U87 cells were treated with HrR3 at a MOI of 5 and indicated concentration of nifuroxazide for 6 hours. Extracted protein was then subjected to western blot assay. (FIG. 5B) U87 cells were treated with indicated concentration of HrR3 or nifuroxazide or stattic or in combination for 72 hours. Cytotoxicity was measured by MTT assay. (FIG. 5C) Relative mRNA level (2^−ΔΔCT) is shown. Data are presented as mean SD, *P<0.05 vs corresponding vehicle treatment.
Expression of key regulator of the Type1 interferon signaling, STAT1 and STAT3, was determined in nifuroxazide treated oHSV-1 infected U87 cells.

ICP27 mRNA = assay: RT-qPCR of ICP27 mRNA in HrR3 infected U87 cells; type: cell-based, HSV-1; details: HrR3 MOI-5, 6 hours
Procedure: as §2, §3

STAT3 = target: T1, STAT3 (Mus musculus, UniProt P42227); assay: Western blot of STAT3 phosphorylation in CT26 cells; type: cell-based; details: 24 hours
T1 construct: Total protein was extracted after 24 hours and subjected to western blot analysis; endogenous in cells; host or cells: CT26 cells, with or without HrR3 infection
Procedure: FIG. 19A and FIG. 19B, U87 cells (A) or CT26 cells (B) were treated with the indicated concentrations of HrR3 or NF or a combination. Total protein was extracted after 24 hours and subjected to western blot analysis. Band intensity was measured using Image J software and normalized to β-actin. Samples were run in triplicate and data are as means±S.E. Statistically significant differences are indicated by P<0.05 or P<0.01. FIG. 19C, Mice subcutaneously bearing U87 tumors were intratumorally injected with a single dose of HrR3 virus (1×10^6 PFU) and/or peritoneally injected doses of NF as indicated. Tumors were harvested on day 10 post treatment and total protein was extracted from a mouse of each treatment group and subjected to western blot analysis in triplicate. Results are reported as means±S.E.
NF is a known inhibitor of STAT1 and STAT3. To evaluate the underlying molecular mechanism of the anti-tumour effect of the NF and oHSV-1 combination, the STAT1 and STAT3 status in U87 cells (FIG. 19A) and CT26 cells (FIG. 19B) cells was determined after an overnight treatment with NF and oncolytic viruses.

T1 sequence (P42227 whole entry): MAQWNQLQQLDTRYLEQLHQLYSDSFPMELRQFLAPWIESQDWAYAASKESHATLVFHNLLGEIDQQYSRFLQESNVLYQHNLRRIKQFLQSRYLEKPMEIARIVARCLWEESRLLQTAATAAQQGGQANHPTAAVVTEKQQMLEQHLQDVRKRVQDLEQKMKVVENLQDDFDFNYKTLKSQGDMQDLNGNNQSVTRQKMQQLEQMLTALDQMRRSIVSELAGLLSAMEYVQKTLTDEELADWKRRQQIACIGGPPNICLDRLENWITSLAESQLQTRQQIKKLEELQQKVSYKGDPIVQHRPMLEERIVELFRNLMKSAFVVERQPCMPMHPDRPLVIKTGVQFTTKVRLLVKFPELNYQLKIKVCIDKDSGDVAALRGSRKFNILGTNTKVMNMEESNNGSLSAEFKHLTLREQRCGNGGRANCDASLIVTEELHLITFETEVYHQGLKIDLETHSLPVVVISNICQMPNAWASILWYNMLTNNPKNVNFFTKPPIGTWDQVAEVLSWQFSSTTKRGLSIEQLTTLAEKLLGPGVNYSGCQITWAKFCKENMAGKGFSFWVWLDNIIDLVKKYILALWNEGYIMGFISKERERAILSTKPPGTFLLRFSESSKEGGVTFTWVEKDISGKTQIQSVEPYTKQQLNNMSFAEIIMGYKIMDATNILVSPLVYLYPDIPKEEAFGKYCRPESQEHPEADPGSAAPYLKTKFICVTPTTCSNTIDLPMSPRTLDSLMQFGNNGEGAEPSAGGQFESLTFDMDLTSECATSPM

Structure (SMILES) | enhanced the replication ([1]; 1 μM of C16, G207 MOI of 1, 48 hours) | enhanced the replication ([1]; 10 μM of C16, G207 MOI of 1, 48 hours) | ICP27 expression (ICP27) | Replication increased ([2]; 0.5 μM nifuroxazide) | Replication increased ([2]; 10 μM nifuroxazide) | IC50 (U87 cells; in combination with MOI of 1 HrR3, 72 hours, read-out: IC50, nifuroxazide dose in combination) | IC50 (U87 cells; individual dose, 72 hours, MTT assay, read-out: Inhibitory concentration 50% (IC50)) | ICP27 mRNA expression (ICP27 mRNA) | HrR3 induced upregulation of STAT3 phosphorylation (STAT3) | phosphorylation of STAT3 (STAT3; NF alone)
O=C1Nc2ccc3ncsc3c2/C1=C/c1c[nH]cn1 [C16, 6,8-Dihydro-8-(1H-imidazol-5-ylmethylene)-7H-pyrrolo[2,3-g]benzothiazol-7-one] | 9 times | 8 times |  |  |  |  |  |  |  | 
O=C(N/N=C/c1ccc([N+](=O)[O-])o1)c1ccc(O)cc1 [nifuroxazide, Benzoic acid, 4-hydroxy-, [(5-nitro-2-furanyl)metylene]hydrazide] |  |  | significantly increases ICP27 expression | 27 fold | 40 fold | ~4 µM | ~20 µM | up-regulation of ICP27 mRNA expression | effectively suppressed | dose dependent inhibition
